Experimental data as given in patent US4254285A, “1-Hydroxymethyl-1-1-oxo prostane derivatives of the E and F series” (American Cyanamid Company, priority 1979, dated 1981).

Experiments:
Type in all cases: in vivo
[1] = tested on: stress-induced (immersion) ulcers; test: Restraint--Immersion Stress Ulcers in the Rat (Wilson)
Protocol: Male "Sprague--Dawley Derived" rats (Locke--Erickson Laboratories, Maywood, Illinois) weighing 150 to 200 g, are fasted, and provided drinking water for 16 to 19 hours prior to the start of the study. At 0 time the rats are dosed orally with compound or vehicle, (approximately 0.5 ml) and then secured in a Bollman-type restraining cage. Five minutes after dosing, the animals are immersed (tail downward) to "shoulder level" into a 22° C. water bath for 100 minutes. At the end of this period, the animals are decapitated and their stomachs promptly excised with about 5 mm each of esophagus and duodenum.
With a blunt tipped scissor the stomach is opened along the greater curvature, starting at the tip of the rumen through the glandular mucosa into the pylorus and opening the bit of duodenum along its amesenteric border. Debris is removed from stomach by rinsing in saline at room temperature and gently blotting it with gauze or filter paper. The stomach is then spread out, mucosal surface upward on a 3×5 file card or similar material.
With an illuminated magnifier the lesions are counted (for total lesion count) and scored (for weighted score) after the method described by G. Osterloh, et al., Arzneimittel-Forschung, 16 (8a):901910, August 1966. The score for each lesion is given in the following table, modified from the paper.
Very large (area) non-perforating lesions are frequently seen. These are measured as so many 3 mm diameter ulcers and scored as multiples of #7.
Rats were dosed by gavage with compound or vehicle and submerged into a
22° C. water bath for 100 minutes. At the end of this period,
animals were sacrificed and their stomachs removed and scored for ulcers.

[2] = tested on: bronchospasms elicited by 5-hydroxytryptamine; test: Bronchodilator Activity (Konzett Assay), 5-hydroxytryptamine; details: Cavia porcellus; guinea pig, intravenous, spasmogen 5-hydroxytryptamine, three logarithmic cumulative doses; read-out: ED50
Protocol: (§1) The bronchodilator activity of some of the PGE compounds of this invention is determined in guinea pigs against bronchospasms elicited by intravenous injections of 5-hydroxytryptamine, histamine or acetylcholine by the Konzett procedure. [See J. Lulling, P. Lievens, F. El Sayed and J. Prignot, Arzneimittel-Forschung, 18, 995 (1968)].
(§2) In the Table B which follows, bronchodilator activity for representative compounds of this invention against one or more of the three spasmogenic agents is expressed as an ED50 determined from the results obtained with three logarithmic cumulative intravenous doses.

[3] = tested on: continuous respiratory spasm induced by pilocarpine; test: Bronchodilator Activity (Pilocarpine Assay); details: Canis lupus familiaris, inhaled or nasal, dog, aerosol, 3.2 mg/ml
Protocol: The PGE compounds of this invention also have bronchodilator activity as determined in a test using dogs anesthetized, artificially ventilated and submitted to a continuous respiratory spasm induced by pilocarpine. Mongrel dogs of either sex weighing between 5 and 10 kg are used. They are premedicated with morphine HCl by subcutaneous injection at 1.5 mg/Kg. An intravenous perfusion of 5% (W/V) chloralose is started 1/2 hour after the morphine injection in such a way that 60 mg/Kg are administered within 15 minutes. After completion, a continuous perfusion of 10 mg/Kg hour is maintained throughout the experiment. The dogs are artificially ventilated by means of a Starling pump at a rate of 20 breaths/minute. The volume is adjusted according to the weight of the animal. [Kleinman and Radford, J. Appl. Physiol., 19, 360 (1964)]. All the measurements are made with the dogs positioned supine in a heated, V-shaped table. Curarization is obtained by succinylcholine chloride using a starting injection of 3 mg/Kg lasting 3 minutes, followed by a continuous perfusion of 0.1 mg/Kg/minute. The respiratory spasm is induced by a starting injection of 400 mcg/Kg of pilocarpine HCl lasting 5 minutes. An increase or decrease in the dose of pilocarpine HCl may occur as a function of the observed effect on airway's resistance. A 15 minute delay is observed before the start of a continuous perfusion of pilocarpine HCl at a dose of 4 mcg/Kg/minute to maintain a constant spasm during the test. A metallic cannula is inserted and fixed, after tracheotomy, into the upper part of the trachea. The two cephalic veins and the two femoral veins are catheterized to inject the various agents. The femoral artery is catheterized to measure the systemic blood pressure. An esophageal balloon (11 cm×2.5 cm) is inserted into the lower third of the oesophagus to measure the endothoracic pressure. The measurement of air flow is made with a […] pneumotachograph connected to the tracheal tube. The transpulmonary pressure is measured as follows: The tracheal cannula is equipped with a stainless steel axial tube (1.5 mm) which is closed at its distal end and projected 2.5 cm beyond the end of the cannula. Three holes with a diameter of one mm are pierced on this latter segment. This tube, which is used to measure the tracheal pressure, is connected to one of the two chambers of a Sanborn 267 B/C differential transducer. The other chamber is connected to the esophageal balloon by means of a polyethylene catheter of the same length and characteristics as the balloon's. The airway's resistance, expressed in cm of water/liter/second, is measured by subtracting from the electrical equivalent of the transpulmonary pressure, a voltage proportional to the flow so as to synchronize the pressure and volume signals on the oscilloscope [Mead and Whittenberger, J. Appl. Physiol, 5, 779 (1953)]. The test compounds are administered by an Aerosol® route. The micronebulizer of a Bird Mark 7 respirator is fitted on the metallic cannula just after the pneumotachograph. The "puff" of the test compound, in Aerosol® is driven by a 2 Kg/cm^2 pressure, allowed into the micronebulizer just during one inspiration cycle. The micronebulizer is fitted on the respiratory tube only during the "puff". It is weighed just before and just after administration to determine the amount of test compound administered.

[4] = tested on: bronchospasms elicited by acetylcholine; test: Bronchodilator Activity (Konzett Assay), acetylcholine; details: Cavia porcellus; guinea pig, intravenous, spasmogen acetylcholine, three logarithmic cumulative doses; read-out: ED50
Protocol: as §1, §2

[5] = tested on: bronchospasms elicited by histamine; test: Bronchodilator Activity (Konzett Assay), histamine; details: Cavia porcellus; guinea pig, intravenous, spasmogen histamine, three logarithmic cumulative doses; read-out: ED50
Protocol: as §1, §2

[6] = tested on: gastric acid secretion; test: Gastric Acid Secretion in the Dog Fistula; details: 10 μg/kg I.G.; for cumulative two-hour gastric secretion, acid: n = 6, control 17.2 ± 1.6; for cumulative two-hour gastric secretion, volume: n = 6, control 130 ± 11
Protocol: Three mongrel dogs (20-32 kg) were surgically prepared with stainless steel cannulae. These were inserted into the most dependent portion of the ventral stomach and exteriorized through the abdomen for the collection of gastric secretions. The dogs were trained to stand quietly in a Pavlov support and were conscious during subsequent secretory studies.
^a After a 26hour fast, gastric acid secretion was submaximally
stimulated, beginning 45 minutes after treatment, using a constant
intravenous infusion of histamine acid phosphate ([…]).
^b Each of three dogs was treated six to seven times with vehicle
(control) and one to three times with each compound; n is the number of
experiments conducted with each treatment.
^c Total secretion from 45-120 minutes following intragastric (I.G.)
administration of drugs or vehicle. Mean effects of treatment were
compared to control means by Student's t test. Compound A is […]

[7] = 5 min, 5 min. after drug administration
[8] = 0.5 h, 30 min. after drug administration
[9] = 1 h, 60 min. after drug administration

SMILES	% Reduction of ulcer score ([1]; 200 mg/Kg P.O.) [%]	% Reduction of ulcer score ([1]; 500 mg/Kg P.O.) [%]	ED50 [2] [µg/kg]	inhibition at 3200 µg/mL [3, 7] [%]	inhibition at 3200 µg/mL [3, 8] [%]	inhibition at 3200 µg/mL [3, 9] [%]	ED50 [4] [µg/kg]	ED50 [5] [µg/kg]	cumulative two-hour gastric secretion, acid [6] [mEq H^+]	cumulative two-hour gastric secretion, volume [6] [mL]	% Reduction of ulcer score ([1]; 3 mg/Kg P.O.) [%]	% Reduction of ulcer score ([1]; 16 mg/Kg P.O.) [%]	% Reduction of ulcer score ([1]; 80 mg/Kg P.O.) [%]
CCCCC(C)(O)CC=CC1C(O)CC(=O)C1CC=CCCCC(=O)CO (stereo not drawn) [1,9-dioxo-11α,16-dihydroxy-16-methyl-1-hydroxymethyl-5-cis-13-trans-prostadiene]	85	95	3.81	90	90	70	6.4	3	7.5 ± 2.1	76 ± 16	–	–	–
CCCCC(C)(O)CC=CC1C(O)CC(=O)C1CCCCCCC(=O)CO (centres unmarked)	67	82	3	90	70	45	4.7	0.943	6.9 ± 2.8	59 ± 19	62	85	82
